Results published in patent publication US20020098186A1, “Use of endothelin inhibitors for treatment or prevention of fibrotic disorders” (priority 1999, published 2002).

What was measured:
[1] = system: liver collagen; test: Liver collagen (hydroxyproline) content in BDO rats; type: in vivo, rat
Protocol: Female adult wistar rats, average weight 206±19 g, underwent the following microsurgical procedure under an operating microscope (OPMI 6-2, Zeiss, Germany) (B. Gerling, M. Becker, J. Waldschmidt, D. Schuppan (1996). J. Hepatol. 25:79-84; G. Boigk, L. Stroedter, H. Herbst H, et al. (1997). Hepatology 26:643-639.): 1. midline abdominal incision following anaesthesia with 100 mg/kg ketamine-hydroochloride (Ketanest®, Parke-Davis, Germany) and 10 mg/kg 5,6-dihydro-2-(2,6-xylidino)-4H-1,3-thiazine-hydrochloride (Rompun®, Bayer, Germany); 2. dissection of the common bile duct, insertion of a teflon catheter (Abbocath -T 26 G, venisystems, U.S.A.) and placement of a distal complete and a proximal incomplete ligature with 5-0 silk (Permahand , Ethicon, Germany); 3. retrograde injection of sodium-amidotrizoate (Ethibloc®, Ethicon Germany) at a dose of 0.02 ml/100 g body weight; 4. removal of the catheter, closure of the proximal ligature, scission of the bile duct between the ligatures and wound closure. After bile duct occlusion (BDO), animals received normal chow (Altromin®, Lage, Germany) and were allowed free access to water. […] The following therapeutic groups were formed: 1. BDO and LU at 80 mg/kg/d for 6 weeks (BDO 80/1-6:n=20); 2. BDO and LU at 80 mg/kg/d from week 4-6 of BDO (BDO 80/4-6:n=20); 3. BDO and LU at 10 mg/kg/d (sham 80/ 1-6:n=10), rats without medication (control: n=10) and bile duct occluded animals without treatment for 6 weeks (BDO: n=20) served as controls. […]
Hydroxyproline (HYP) was quantified in duplicates from 0.2 g of formalin-fixed liver as described (d. Schuppan, J. M. Dumont, K. Y. Kim, et al (1986). J. Hepatol. 3:27-37; C. Genovese; D. Rowe; B. Kream (1984). Biochemistry 23. 6210-6216.). […] Absorption was read at 558 nm and HYP concentrations were determined from a standard curve with 0 to 1.6 μg HYP (Merck, Germany). The hepatic HYP concentration was calculated using the formula [formula]
and the total liver HYP content calculated by multiplication with the liver weight.

[2] = system: rat secondary biliary liver fibrosis (BDO); test: Histological assessment (staging) of liver fibrosis in BDO rats; type: in vivo
Protocol: (§1) Female adult wistar rats, average weight 206±19 g, underwent the following microsurgical procedure under an operating microscope (OPMI 6-2, Zeiss, Germany) (B. Gerling, M. Becker, J. Waldschmidt, D. Schuppan (1996). J. Hepatol. 25:79-84; G. Boigk, L. Stroedter, H. Herbst H, et al. (1997). Hepatology 26:643-639.): 1. midline abdominal incision following anaesthesia with 100 mg/kg ketamine-hydroochloride (Ketanest®, Parke-Davis, Germany) and 10 mg/kg 5,6-dihydro-2-(2,6-xylidino)-4H-1,3-thiazine-hydrochloride (Rompun®, Bayer, Germany); 2. dissection of the common bile duct, insertion of a teflon catheter (Abbocath -T 26 G, venisystems, U.S.A.) and placement of a distal complete and a proximal incomplete ligature with 5-0 silk (Permahand , Ethicon, Germany); 3. retrograde injection of sodium-amidotrizoate (Ethibloc®, Ethicon Germany) at a dose of 0.02 ml/100 g body weight; 4. removal of the catheter, closure of the proximal ligature, scission of the bile duct between the ligatures and wound closure. After bile duct occlusion (BDO), animals received normal chow (Altromin®, Lage, Germany) and were allowed free access to water. […] The following therapeutic groups were formed: 1. BDO and LU at 80 mg/kg/d for 6 weeks (BDO 80/1-6:n=20); 2. BDO and LU at 80 mg/kg/d from week 4-6 of BDO (BDO 80/4-6:n=20); 3. BDO and LU at 10 mg/kg/d (sham 80/ 1-6:n=10), rats without medication (control: n=10) and bile duct occluded animals without treatment for 6 weeks (BDO: n=20) served as controls.
For each liver 1 μm paraffin sections of the right and the left lobe were stained with hematoxylin/eosin, trichrome (Masson-Goldner) and silver impregnation (Gomori), and scores (see below of both lobes averaged. Inflammation and necrosis were graded according to the histological activity index of Knodell et al. (R. G. Knodell, K. G. Ishak, W. C. Black, et al. (1981). Hepatology 1:431-435.). Staging of fibrosis was modified from (G. Boigk, L. Stroedter, H. Herbst H, et al. (1997). Hepatology 26:643-649.) as follows: stage 0; normal; stage I: portal fiels marginally expanded by bile ductules; stage II: expanded portal fields which occasionally […] each other; stage III: markedly expanded portal fields, all of which broadly contact each other, separating hepatocellular islands; stage IV: the liver is entirely filled with fibrotic biliary proliferations that entrap few residual hepatocytes (severe cirrhosis). Scores of the right and left lobes were averaged to give single numerical values for each liver.

[3] = Tolerability in BDO and sham-operated rats (death, renal toxicity, food consumption, measured parameters); type: in vivo
Protocol: as §1
Early mortality (within 1 h to 3 days) in rats with BDO was due to local infection and amounted to 9%. […] After 6 weeks rats were sacrificed under ketanest(rompun-anaesthesia by puncture of the right ventricle and exsanguination. Heart, liver, spleen and kidneys were weighed, and 1-2 g pieces of the left and the right liver lobes fixed in 4% formalin for histology and hydroxyproline (HYP) determinations.
Rats with sham operation and rats with BDO were fed the oral endothelin A receptor antagonist LU 135252 (LU).
However, liver collagen (both as relative and total liver collagen content), which was increased 6- and 12-fold above normal, resp., in the untreated group with BDO, was reduced by 50-55% in rats on 80 mg LU/kg/d over the 6 weeks of BDO (p<0.001) (FIG. 1). […] Since contrary to the sham-operated rats, LU at 80 mg/kg/d which represents a high dose, caused death dose-dependently due to rental tubular necrosis in 50% and 25% of the two treatment groups, resp., a second experiment with a lower dose (10 mg/kg/d) over 6 weeks of BDO was performed.

[4] = BDO/LU 80/1-6: LU 80 mg/kg/d week 1-6
[5] = BDO/LU 80/4-6: LU 80 mg/kg/d week 4-6

For COc1cc(OC)nc(O[C@H](C(=O)O)C(OC)(c2ccccc2)c2ccccc2)n1 [LU], the “Reduction of relative liver collagen” value ([1]; 10 mg/kg/d over 6 weeks of BDO) was 35%, the “Reduction of hepatic collagen” value ([1]; 80 mg LU/kg/d from week 4-6 after BDO, p<0.001) was about 50% and the “Reduction of liver collagen (both as relative and total liver collagen content)” value ([1]; 80 mg LU/kg/d over the 6 weeks of BDO, vs untreated BDO, p<0.001) was 50-55%. The “Histological assessment of fibrosis: animals at Stage I” value [2, 4] was 2, the “Histological assessment of fibrosis: animals at Stage II” value [2, 4] was 4 and the “Histological assessment of fibrosis: animals at Stage III” value (“Histological assessment … at Stage III” below) [2, 4] was 4. The “Histological assessment of fibrosis: animals at Stage I” value [2, 5] was 4, the “Histological assessment of fibrosis: animals at Stage II” value [2, 5] was 5 and the “Histological assessment … at Stage III” value [2, 5] was 3. The “Histological assessment of fibrosis: animals at Stage IV” value [2, 5] was 2, the “Histological assessment of fibrosis: animals at Stage I” value ([2]; headed BDO/LU 80/1-6) was 8 and the “Histological assessment of fibrosis: animals at Stage II” value ([2]; headed BDO/LU 80/1-6) was 5. For the same compound, the “Histological assessment … at Stage III” value ([2]; headed BDO/LU 80/1-6) was 4, the “Histological assessment of fibrosis: animals at Stage IV” value ([2]; headed BDO/LU 80/1-6) was 3 and the Histological fibrosis score ([2]; rats with BDO, administration of LU) was “improved histological fibrosis score”. For the same compound, the “Architectural distortion of the liver, semiquantitatively graded” value ([2]; rats with BDO, low-dose vs high-dose group (not shown)) was “even more significantly reduced in the low-than in the high-dose group”, the “Death or renal toxicity” value ([3]; BDO rats, 10 mg/kg/d over 6 weeks) was “no death or renal toxicity was observed” and the “Death due to renal tubular necrosis (share of treatment group)” value ([3]; BDO rats, LU 80 mg/kg/d for 6 weeks) was 50%. For the same compound, the “Death due to renal tubular necrosis (share of treatment group)” value ([3]; BDO rats, LU 80 mg/kg/d from week 4-6) was 25%, the “Food consumption by the animals” value ([3]; LU mixed with the chow) was “did not alter food consumption” and the “Measured parameters (body and organ weights, liver collagen, liver histology, clinical chemical values)” value ([3]; sham-operated rats, LU 80 mg/kg/d for 6 weeks) was “did not alter any of the measured parameters”.
